Reference: publication PMC9828467 (Chemmedchem, 2022)

Columns and labels:
[1] = target: Plasmin from human plasma (Homo sapiens, UniProt P00747); assay: Plasmin inhibition assay with chromogenic substrate S-2251; assay type: biochemical; conditions: ratio to Ki of monovalent AMB
plasmin = conditions: cited from earlier work

Chain of Plasmin from human plasma (P00747 581-810 limits assumed): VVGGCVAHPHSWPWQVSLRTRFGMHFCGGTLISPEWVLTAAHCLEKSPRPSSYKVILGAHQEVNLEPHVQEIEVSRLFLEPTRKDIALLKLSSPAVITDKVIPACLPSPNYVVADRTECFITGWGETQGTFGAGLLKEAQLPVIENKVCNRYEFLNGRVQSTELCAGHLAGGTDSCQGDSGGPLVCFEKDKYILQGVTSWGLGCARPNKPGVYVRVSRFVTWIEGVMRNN
Chain of Plasmin from human plasma (P00747 98-580 partner limits assumed): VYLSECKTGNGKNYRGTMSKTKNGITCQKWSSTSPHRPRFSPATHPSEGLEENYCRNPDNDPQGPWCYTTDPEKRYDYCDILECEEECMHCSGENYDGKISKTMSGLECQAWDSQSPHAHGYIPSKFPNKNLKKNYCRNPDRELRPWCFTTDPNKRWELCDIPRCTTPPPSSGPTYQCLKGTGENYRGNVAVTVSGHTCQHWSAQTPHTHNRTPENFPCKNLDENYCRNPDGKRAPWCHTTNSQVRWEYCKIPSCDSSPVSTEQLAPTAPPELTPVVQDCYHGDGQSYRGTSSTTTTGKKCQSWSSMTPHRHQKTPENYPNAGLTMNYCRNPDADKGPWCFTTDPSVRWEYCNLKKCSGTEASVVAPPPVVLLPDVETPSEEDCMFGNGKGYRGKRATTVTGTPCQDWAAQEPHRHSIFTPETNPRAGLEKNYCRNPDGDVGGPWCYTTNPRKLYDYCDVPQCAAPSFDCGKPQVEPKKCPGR

Structure (SMILES)	rp: relative potency = Ki AMB/Ki multi [1]	Fold stronger plasmin inhibitor than the strongest monovalent benzamidine (plasmin)
N=C(N)c1ccc(CNC(=O)CCOCCOCCOCCOCCNC(=O)CN(CC(=O)NCCOCCOCCOCCOCCC(=O)NCc2ccc(C(=N)N)cc2)CC(=O)NCCOCCOCCOCCOCCC(=O)NCc2ccc(C(=N)N)cc2)cc1 [Tri‐PEG4−AMB]	27.6	–
N=C(N)c1ccc(OCCCCCOc2ccc(C(=N)N)cc2)cc1 [Pentamidine, reference compound]	664.3	13 fold
COCCOCCOCCOCCOCCOCCOCCOCCOCCOCCOCCOCCOCCOCCOCCOCCOCCOCCOCCOCCOCCOCCOCCOCCOCCC(=O)NCc1ccc(C(=N)N)cc1 [m‐dPEG24−AMB]	2.7	–
COCCOCCOCCOCCOCCOCCOCCOCCOCCOCCOCCOCCOCCC(=O)NCc1ccc(C(=N)N)cc1 [m‐dPEG12−AMB]	3.9	–
